Positions of bridges follow the written chain, without caps; N, C: chain ends. Non-standard residues stand in square brackets, D forms with d. Residues, ends and D or L forms follow the SMILES beside them. *: point of attachment. X1 = CN(C)c1ccc2c(c1)Oc1cc(N(C)C)ccc1C21OC(=O)c2ccc(C(=O)*)cc21; C18 diacid = O=C(O)CCCCCCCCCCCCCCCCC(=O)*; PEG3 = NCCOCCOCCOCCC(=O)O; Dap = NC[C@H](N)C(=O)O

The data set is described as follows: Stability determination of TAMRA-labelled adrenomedullin analogues in human blood plasma. The format is in vitro ADME. As to conditions: 37° C., 10^-5 M, slow-decay phase half-life, read-out: t1/2 (slow) (converted). The procedure:
The stability of the peptides was investigated using fluorescently labeled analogues, which were prepared as described above.
The TAMRA-labeled analogues were dissolved in 1.5 m1 of human blood plasma to a concentration of 10^−5 M and incubated at 37° C. under constant shaking. Samples of 150 μl were taken at different time points and precipitated with 300 μl Ethanol/ACN (1:1) for at least 1 h at −20° C. After centrifugation for 30 s at 12000 rpm, the supernatant was collected and incubated at −20° C. for at least 3 h. Subsequently, it was transferred into Costar® Spin-X® Centrifuge Tube Filters (0.22 μm) and centrifuged for 1 h at 12000 rpm. The samples were analyzed by RP-HPLC using a VariTide RPC column (Agilent Technologies, 250 mm×4.6 mm, […], 200 Å) with linear gradients of 0.1% TFA in water and 0.08% TFA in ACN; fluorescence measurement (λex=525 nm; λem=572 nm) was used for the detection of the analogues and their N-terminal fragments. The percentage of intact peptide was determined by peak integration. The values of peaks containing additional cleavage fragments were corrected by comparing intensities of cleavage fragments and intact peptide using MALDI-MS analysis (UltraflexIII, Bruker). The stability of the peptides was calculated with GraphPad Prism 5 (GraphPad Software) using a two phase exponential decay function for the determination of slow-decay phase half-lives (ln(2)/Kslow; Kslow: rate constant of slow part of exponential decay).
In the case of `CC[C@H](C)[C@H](NC(=O)[C@H](CCC(N)=O)NC(=O)[C@H](Cc1c[nH]cn1)NC(=O)[C@H](C)NC(=O)[C@H](CC(C)C)NC(=O)[C@H](CCCCN)NC(=O)[C@H](CCC(N)=O)NC(=O)[C@@H](NC(=O)[C@@H](NC(=O)[C@@H]1CSSC[C@H](NC(=O)CNC(=O)[C@H](CCCCNC(=O)CCCCCCCCCCCCCCCCC(=O)O)NC(=O)c2ccc3c(c2)C2(OC3=O)c3ccc(N(C)C)cc3Oc3cc(N(C)C)ccc32)C(=O)N[C@@H](CCCNC(=N)N)C(=O)N[C@@H](Cc2ccccc2)C(=O)NCC(=O)N[C@@H]([C@@H](C)O)C(=O)N1)[C@@H](C)O)C(C)C)C(=O)N[C@@H](Cc1ccc(O)cc1)C(=O)N[C@@H](CCC(N)=O)C(=O)N[C@@H](Cc1ccccc1)C(=O)N[C@H](C(=O)N[C@@H](CC(=O)O)C(=O)N[C@@H](CCCCN)C(=O)N[C@@H](CC(=O)O)C(=O)N[C@@H](CCCCN)C(=O)N[C@@H](CC(=O)O)C(=O)N[C@@H](CC(N)=O)C(=O)N[C@H](C(=O)N[C@@H](C)C(=O)N1CCC[C@H]1C(=O)N[C@@H](CCCNC(=N)N)C(=O)N[C@@H](CO)C(=O)N[C@@H](CCCCN)C(=O)N[C@H](C(=O)N[C@@H](CO)C(=O)N1CCC[C@H]1C(=O)N[C@@H](CCC(N)=O)C(=O)NCC(=O)N[C@@H](Cc1ccc(O)cc1)C(N)=O)[C@@H](C)CC)C(C)C)[C@@H](C)O` [TAM-5], the half-life was 149 h. As for `CC[C@H](C)[C@H](NC(=O)[C@H](CCC(N)=O)NC(=O)[C@H](Cc1c[nH]cn1)NC(=O)[C@H](C)NC(=O)[C@H](CC(C)C)NC(=O)[C@H](CCCCN)NC(=O)[C@H](CCC(N)=O)NC(=O)[C@@H](NC(=O)[C@@H](NC(=O)[C@@H]1CSSC[C@H](NC(=O)CNC(=O)[C@H](CCCCNC(=O)CCCCCCCCCCCCCCCCC(=O)O)NC(=O)c2ccc3c(c2)C2(OC3=O)c3ccc(N(C)C)cc3Oc3cc(N(C)C)ccc32)C(=O)N[C@@H](CCCNC(=N)N)C(=O)N[C@@H](Cc2ccccc2)C(=O)NCC(=O)N[C@@H]([C@@H](C)O)C(=O)N1)[C@@H](C)O)C(C)C)C(=O)N[C@@H](Cc1ccc(O)cc1)C(=O)N[C@@H](CCC(N)=O)C(=O)N[C@@H](Cc1ccccc1)C(=O)N[C@H](C(=O)N[C@@H](CC(=O)O)C(=O)N[C@@H](CCCCN)C(=O)N[C@@H](CC(=O)O)C(=O)N[C@@H](CCCCN)C(=O)N[C@@H](CC(=O)O)C(=O)N[C@@H](CC(N)=O)C(=O)N[C@H](C(=O)N[C@@H](C)C(=O)N1CCC[C@H]1C(=O)N[C@H]1CCCCNC(=O)C[C@@H](C(=O)N2CCC[C@H]2C(=O)N[C@@H](CCC(N)=O)C(=O)NCC(=O)N[C@@H](Cc2ccc(O)cc2)C(N)=O)NC(=O)[C@H]([C@@H](C)CC)NC(=O)[C@H](CCCCN)NC(=O)[C@H](CO)NC1=O)C(C)C)[C@@H](C)O` [TAM-13] (X1-K(C18 diacid)GCRFGTCTVQKLAHQIYQFTDKDKDNVAPKSKIDPQGY-NH2; disulfide 3-8; lactam 31-35), the figure is greater than 144 h; as for `CC[C@H](C)[C@H](NC(=O)[C@H](CCC(N)=O)NC(=O)[C@H](Cc1c[nH]cn1)NC(=O)[C@H](C)NC(=O)[C@H](CC(C)C)NC(=O)[C@H](CCCCN)NC(=O)[C@H](CCC(N)=O)NC(=O)[C@@H](NC(=O)[C@@H](NC(=O)[C@@H]1CSSC[C@H](NC(=O)CNC(=O)[C@H](CCCCNC(=O)CCCCCCCCCCCCCCCCC(=O)O)NC(=O)c2ccc3c(c2)C2(OC3=O)c3ccc(N(C)C)cc3Oc3cc(N(C)C)ccc32)C(=O)N[C@@H](CCCNC(=N)N)C(=O)N[C@@H](Cc2ccccc2)C(=O)NCC(=O)N[C@@H]([C@@H](C)O)C(=O)N1)[C@@H](C)O)C(C)C)C(=O)N[C@@H](Cc1ccc(O)cc1)C(=O)N[C@@H](CCC(N)=O)C(=O)N[C@@H](Cc1ccccc1)C(=O)N[C@H](C(=O)NCCOCCOCCOCCC(=O)N[C@@H](CC(=O)O)C(=O)N[C@@H](CC(N)=O)C(=O)N[C@H](C(=O)N[C@@H](C)C(=O)N1CCC[C@H]1C(=O)N[C@H]1CCCCNC(=O)C[C@@H](C(=O)N2CCC[C@H]2C(=O)N[C@@H](CCC(N)=O)C(=O)NCC(=O)N[C@@H](Cc2ccc(O)cc2)C(N)=O)NC(=O)[C@H]([C@@H](C)CC)NC(=O)[C@H](CCCCN)NC(=O)[C@H](CO)NC1=O)C(C)C)[C@@H](C)O` [TAM-14] (X1-K(C18 diacid)GCRFGTCTVQKLAHQIYQFT[PEG3]DNVAPKSKIDPQGY-NH2; disulfide 3-8; lactam 28-32), greater than 144 h; as for `CC[C@H](C)[C@H](NC(=O)[C@H](CCC(N)=O)NC(=O)[C@H](Cc1c[nH]cn1)NC(=O)[C@H](C)NC(=O)[C@H](CC(C)C)NC(=O)[C@H](CCCCN)NC(=O)[C@H](CCC(N)=O)NC(=O)[C@@H](NC(=O)[C@@H](NC(=O)[C@@H]1CCC(=O)NC[C@H](NC(=O)CNC(=O)[C@H](CCCCNC(=O)CCCCCCCCCCCCCCCCC(=O)O)NC(=O)c2ccc3c(c2)C2(OC3=O)c3ccc(N(C)C)cc3Oc3cc(N(C)C)ccc32)C(=O)N[C@@H](CCCNC(=N)N)C(=O)N[C@@H](Cc2ccccc2)C(=O)NCC(=O)N[C@@H]([C@@H](C)O)C(=O)N1)[C@@H](C)O)C(C)C)C(=O)N[C@@H](Cc1ccc(O)cc1)C(=O)N[C@@H](CCC(N)=O)C(=O)N[C@@H](Cc1ccccc1)C(=O)N[C@H](C(=O)N[C@@H](CC(=O)O)C(=O)N[C@@H](CCCCN)C(=O)N[C@@H](CC(=O)O)C(=O)N[C@@H](CCCCN)C(=O)N[C@@H](CC(=O)O)C(=O)N[C@@H](CC(N)=O)C(=O)N[C@H](C(=O)N[C@@H](C)C(=O)N1CCC[C@H]1C(=O)N[C@@H](CCCNC(=N)N)C(=O)N[C@@H](CO)C(=O)N[C@@H](CCCCN)C(=O)N[C@H](C(=O)N[C@@H](CO)C(=O)N1CCC[C@H]1C(=O)N[C@@H](CCC(N)=O)C(=O)NCC(=O)N[C@@H](Cc1ccc(O)cc1)C(N)=O)[C@@H](C)CC)C(C)C)[C@@H](C)O` [TAM-15] (X1-K(C18 diacid)G[Dap]RFGTETVQKLAHQIYQFTDKDKDNVAPRSKISPQGY-NH2; lactam 3-8), greater than 144 h.

On to `CC[C@H](C)[C@H](NC(=O)[C@H](CCC(N)=O)NC(=O)[C@H](Cc1c[nH]cn1)NC(=O)[C@H](C)NC(=O)[C@H](CC(C)C)NC(=O)[C@H](CCCCN)NC(=O)[C@H](CCC(N)=O)NC(=O)[C@@H](NC(=O)[C@@H](NC(=O)[C@@H]1CCC(=O)NC[C@H](NC(=O)CNC(=O)[C@H](CCCCNC(=O)CCCCCCCCCCCCCCCCC(=O)O)NC(=O)c2ccc3c(c2)C2(OC3=O)c3ccc(N(C)C)cc3Oc3cc(N(C)C)ccc32)C(=O)N[C@@H](CCCNC(=N)N)C(=O)N[C@@H](Cc2ccccc2)C(=O)NCC(=O)N[C@@H]([C@@H](C)O)C(=O)N1)[C@@H](C)O)C(C)C)C(=O)N[C@@H](Cc1ccc(O)cc1)C(=O)N[C@@H](CCC(N)=O)C(=O)N[C@@H](Cc1ccccc1)C(=O)N[C@H](C(=O)N[C@@H](CC(=O)O)C(=O)N[C@@H](CCCCN)C(=O)N[C@@H](CC(=O)O)C(=O)N[C@@H](CCCCN)C(=O)N[C@@H](CC(=O)O)C(=O)N[C@@H](CC(N)=O)C(=O)N[C@H](C(=O)N[C@@H](C)C(=O)N1CCC[C@H]1C(=O)N[C@H]1CCCCNC(=O)C[C@@H](C(=O)N2CCC[C@H]2C(=O)N[C@@H](CCC(N)=O)C(=O)NCC(=O)N[C@@H](Cc2ccc(O)cc2)C(N)=O)NC(=O)[C@H]([C@@H](C)CC)NC(=O)[C@H](CCCCN)NC(=O)[C@H](CO)NC1=O)C(C)C)[C@@H](C)O` [TAM-16] (X1-K(C18 diacid)G[Dap]RFGTETVQKLAHQIYQFTDKDKDNVAPKSKIDPQGY-NH2; lactam 3-8, 31-35), for which the half-life was greater than 144 h. Take `CC[C@H](C)[C@H](NC(=O)[C@H](CCC(N)=O)NC(=O)[C@H](Cc1c[nH]cn1)NC(=O)[C@H](C)NC(=O)[C@H](CC(C)C)NC(=O)[C@H](CCCCN)NC(=O)[C@H](CCC(N)=O)NC(=O)[C@@H](NC(=O)[C@@H](NC(=O)[C@@H]1CCC(=O)NC[C@H](NC(=O)CNC(=O)[C@H](CCCCNC(=O)CCCCCCCCCCCCCCCCC(=O)O)NC(=O)c2ccc3c(c2)C2(OC3=O)c3ccc(N(C)C)cc3Oc3cc(N(C)C)ccc32)C(=O)N[C@@H](CCCNC(=N)N)C(=O)N[C@@H](Cc2ccccc2)C(=O)NCC(=O)N[C@@H]([C@@H](C)O)C(=O)N1)[C@@H](C)O)C(C)C)C(=O)N[C@@H](Cc1ccc(O)cc1)C(=O)N[C@@H](CCC(N)=O)C(=O)N[C@@H](Cc1ccccc1)C(=O)N[C@H](C(=O)NCCOCCOCCOCCC(=O)N[C@@H](CC(=O)O)C(=O)N[C@@H](CC(N)=O)C(=O)N[C@H](C(=O)N[C@@H](C)C(=O)N1CCC[C@H]1C(=O)N[C@H]1CCCCNC(=O)C[C@@H](C(=O)N2CCC[C@H]2C(=O)N[C@@H](CCC(N)=O)C(=O)NCC(=O)N[C@@H](Cc2ccc(O)cc2)C(N)=O)NC(=O)[C@H]([C@@H](C)CC)NC(=O)[C@H](CCCCN)NC(=O)[C@H](CO)NC1=O)C(C)C)[C@@H](C)O` [TAM-17] (X1-K(C18 diacid)G[Dap]RFGTETVQKLAHQIYQFT[PEG3]DNVAPKSKIDPQGY-NH2; lactam 3-8, 28-32): the half-life is greater than 144 h.
